Test system: SEM cells
Test: cell viability relative to DMSO control; higher = less cytotoxic
Details: 48 h
Outline: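 NOMO1 or SEM cells were plated at 500 cells/well and P12-Ichikawa cells at 1000 cells/well in 1536-well plates (5 μl), after each leukemia line had been adapted for at least four passages in each medium. Pin dosing delivered library compounds in DMSO at 11 threefold concentrations, 47 μM to 0.79 nM. CellTiter-Glo One luminescence was read after 48 h at 37°C. Viability is reported as a per-plate percentage of DMSO wells, with cell-free wells as background.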

[1] = HPLM + 10% dialyzed FBS, 0.000781 µM
[2] = HPLM + 10% dialyzed FBS, 0.00234 µM
[3] = HPLM + 10% dialyzed FBS, 0.00702 µM
[4] = HPLM + 10% dialyzed FBS, 0.0211 µM
[5] = HPLM + 10% dialyzed FBS, 0.0632 µM
[6] = HPLM + 10% dialyzed FBS, 0.19 µM
[7] = HPLM + 10% dialyzed FBS, 0.569 µM
[8] = HPLM + 10% dialyzed FBS, 1.71 µM
[9] = HPLM + 10% dialyzed FBS, 5.12 µM
[10] = HPLM + 10% dialyzed FBS, 15.4 µM
[11] = HPLM + 10% dialyzed FBS, 46.1 µM
[12] = RPMI 5 mM glucose + 10% FBS, 0.000781 µM
[13] = RPMI 5 mM glucose + 10% FBS, 0.00234 µM
[14] = RPMI 5 mM glucose + 10% FBS, 0.00702 µM
[15] = RPMI 5 mM glucose + 10% FBS, 0.0211 µM
[16] = RPMI 5 mM glucose + 10% FBS, 0.0632 µM
[17] = RPMI 5 mM glucose + 10% FBS, 0.19 µM
[18] = RPMI 5 mM glucose + 10% FBS, 0.569 µM
[19] = RPMI 5 mM glucose + 10% FBS, 1.71 µM
[20] = RPMI 5 mM glucose + 10% FBS, 5.12 µM
[21] = RPMI 5 mM glucose + 10% FBS, 15.4 µM
[22] = RPMI 5 mM glucose + 10% FBS, 46.1 µM
[23] = RPMI 5 mM glucose + 10% dialyzed FBS, 0.000781 µM
[24] = RPMI 5 mM glucose + 10% dialyzed FBS, 0.00234 µM
[25] = RPMI 5 mM glucose + 10% dialyzed FBS, 0.00702 µM
[26] = RPMI 5 mM glucose + 10% dialyzed FBS, 0.0211 µM
[27] = RPMI 5 mM glucose + 10% dialyzed FBS, 0.0632 µM
[28] = RPMI 5 mM glucose + 10% dialyzed FBS, 0.19 µM
[29] = RPMI 5 mM glucose + 10% dialyzed FBS, 0.569 µM
[30] = RPMI 5 mM glucose + 10% dialyzed FBS, 1.71 µM
[31] = RPMI 5 mM glucose + 10% dialyzed FBS, 5.12 µM
[32] = RPMI 5 mM glucose + 10% dialyzed FBS, 15.4 µM
[33] = RPMI 5 mM glucose + 10% dialyzed FBS, 46.1 µM

| SMILES | cell viability [1] | cell viability [2] | cell viability [3] | cell viability [4] | cell viability [5] | cell viability [6] | cell viability [7] | cell viability [8] | cell viability [9] | cell viability [10] | cell viability [11] | cell viability [12] | cell viability [13] | cell viability [14] | cell viability [15] | cell viability [16] | cell viability [17] | cell viability [18] | cell viability [19] | cell viability [20] | cell viability [21] | cell viability [22] | cell viability [23] | cell viability [24] | cell viability [25] | cell viability [26] | cell viability [27] | cell viability [28] | cell viability [29] | cell viability [30] | cell viability [31] | cell viability [32] | cell viability [33] |
| --- | --- | --- | --- | --- | --- | --- | --- | --- | --- | --- | --- | --- | --- | --- | --- | --- | --- | --- | --- | --- | --- | --- | --- | --- | --- | --- | --- | --- | --- | --- | --- | --- | --- |
| CS[C@H]1SC[C@@H]2C(=O)N(C)[C@H](C(C)C)C(=O)OC[C@H](NC(=O)c3cnc4ccccc4n3)C(=O)N[C@H](C)C(=O)N(C)[C@H]1C(=O)N(C)[C@H](C(C)C)C(=O)OC[C@H](NC(=O)c1cnc3ccccc3n1)C(=O)N[C@H](C)C(=O)N2C | 81.1% | 59% | 37.5% | 14.2% | 7.27% | 7.08% | 7.54% | 7.91% | 7.3% | 6% | 5.18% | 76.5% | 47.9% | 25.6% | 9.07% | 6.95% | 7.44% | 7.22% | 7.34% | 7.64% | 6.82% | 5% | 66.4% | 44.7% | 34.2% | 11.8% | 7.65% | 8.72% | 8.82% | 8.65% | 8.6% | 7.68% | 5.52% |
| COc1cc2ncn(-c3cc(OCc4ccccc4C(F)(F)F)c(C(N)=O)s3)c2cc1OC | 120% | 121% | 116% | 115% | 115% | 104% | 110% | 65.3% | 28.6% | 22.4% | 20.7% | 124% | 121% | 122% | 115% | 124% | 105% | 128% | 74% | 18.4% | 13.4% | 13.1% | 108% | 112% | 124% | 120% | 116% | 142% | 139% | 103% | 25.9% | 20.3% | 19.5% |
| Oc1ccc2ccccc2c1SSc1c(O)ccc2ccccc12 | 95% | 102% | 109% | 116% | 106% | 85.8% | 99.5% | 96.2% | 108% | 97.3% | 9.05% | 104% | 109% | 95% | 102% | 111% | 79.1% | 103% | 99.4% | 104% | 78.9% | 30% | 95% | 99.6% | 84.3% | 113% | 92.5% | 66.9% | 93.1% | 104% | 87.6% | 74.7% | 20.1% |
| N#CC[C@H](C1CCCC1)n1cc(-c2ncnc3[nH]ccc23)cn1 | 100% | 104% | 103% | 103% | 94.1% | 85.9% | 103% | 90.1% | 63.7% | 39.6% | 24.5% | 103% | 111% | 86.6% | 108% | 109% | 96.1% | 92.7% | 107% | 50% | 23% | 19.8% | 98.9% | 97.7% | 98.1% | 97.9% | 113% | 99.6% | 96.8% | 87.3% | 63.3% | 31.6% | 26.3% |
| CCC(C1CCC(C)C(O1)C(C)C(O)C(C)C(=O)C(CC)C2OC\3(O[C@]4(CC[C@@](C)(O4)C5CC[C@@](O)(CC)C(C)O5)C(O)\C=C3)C(C)CC2C)C([O-])=O (stereo partly specified) | 105% | 13.3% | 124% | 103% | 113% | 118% | 116% | 77.4% | 29.6% | 22.9% | 21.3% | 107% | 101% | 110% | 107% | 110% | 109% | 98.3% | 55% | 25.5% | 14.3% | 10.4% | 58.1% | 15% | 97.9% | 97.9% | 113% | 97.8% | 89.1% | 50.2% | 26.9% | 22.5% | 14.3% |
| NC[C@H]1O[C@H](O[C@H]2[C@H](O)[C@@H](O[C@H]3O[C@H](CO)[C@@H](O)[C@H](N)[C@H]3O)[C@H](N)C[C@@H]2N)[C@H](N)C[C@@H]1O | 88.9% | 95.3% | 98.6% | 108% | 104% | 92.9% | 107% | 96.9% | 101% | 101% | 109% | 93.7% | 97.1% | 106% | 98.6% | 119% | 109% | 112% | 95.6% | 89% | 100% | 111% | 105% | 105% | 118% | 116% | 107% | 108% | 110% | 104% | 112% | 103% | 111% |
| CC(C)c1c(C(=O)Nc2ccccc2)c(-c2ccccc2)c(-c2ccc(F)cc2)n1CC[C@@H](O)C[C@@H](O)CC(=O)[O-] | 108% | 117% | 103% | 113% | 112% | 102% | 93.2% | 104% | 99.8% | 75% | 69.9% | 81.9% | 92.3% | 110% | 120% | 103% | 86.3% | 98.3% | 97% | 88.6% | 70% | 45.1% | 99.6% | 109% | 104% | 106% | 93.4% | 68.5% | 104% | 97.8% | 93.3% | 80% | 60.9% |
